In patent publication US10806761B2, “Oncolytic HSV1 vector and methods of use” (THE BRIGHAM AND WOMEN'S HOSPITAL, INC., priority 2015, dated 2020):

Tested on: gliomas
Settings: single dose administered two days before rQNestin34.5v.2
Source text: Mammals are able to rapidly counteract HSV1 in the brain through their initial immune responses.

Q: What does the source list for O=P1(N(CCCl)CCCl)NCCCO1 (centres unmarked) [cyclophosphamide]?
A: effect on viral biodistribution, replication and efficacy: significantly enhances viral biodistribution, replication and efficacy; reduction of the dose of virus required to produce a survival effect: two orders of magnitude
